Among the test systems are IGROV-1; MDA-MB-435; MOLT-4; KM12; UACC-62; SR; RPMI-8226; UACC-257; SF-539; HCT-116; A498; HCC 2998; LOX IMVI; SK-MEL-2; SF-268; MDA-N; ACHN; OVCAR-5; HOP-62.
Holding throughout (test): NCI anticancer screen, dose series, 48 h

This note sets out measurements from ChEMBL document CHEMBL1201862, “PubChem BioAssay data set” (2004).

SMILES strings stand for the structures. Where a name gives a salt, the structure may show the parent alone.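 Interpolation was linear, between the two tested concentrations surrounding the appropriate level; five concentrations were tested over 48 hours in 96-well plates. GI50: concentration for 50% inhibition of growth.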 Calls of active or inactive are those of the source. No stated cut-off is given here; in the data, active = GI50 up to about 1.1 µM and inactive = higher.

For the molecule `CC(=O)SC(C[N+](=O)[O-])c1ccccc1` (stereo not given), the GI50 in the assay on IGROV-1 is 2.32 µM (inactive); with MDA-MB-435 it was 2.09 µM (inactive); in the assay with MOLT-4, 1.72 µM (inactive); in the assay with KM12, 4.99 µM (inactive); with UACC-62 it was 13.9 µM (inactive); with SR, 2.22 µM (inactive). For the same molecule, the GI50 is 2.05 µM (inactive) in the assay with RPMI-8226; 11.3 µM (inactive) in the assay with UACC-257; 2.27 µM (inactive) in the assay with SF-539; 1.6 µM (inactive) in the assay on HCT-116; 5.43 µM (inactive) in the assay with A498; 4.75 µM (inactive) with HCC 2998. Also, the GI50 is 1.65 µM (inactive) in the assay with LOX IMVI; 19.8 µM (inactive) in the assay with SK-MEL-2; 7.98 µM (inactive) in the assay with SF-268; 2.32 µM (inactive) with MDA-N; 3.66 µM (inactive) in the assay with ACHN; 3.8 µM (inactive) in the assay on OVCAR-5. Further, the GI50 with HOP-62 is 15.3 µM (inactive).
`CCc1nc(N)nc(N)c1-c1ccc(NC)c([N+](=O)[O-])c1`: the GI50 in the assay with IGROV-1 was 0.904 µM (active); in the assay on MDA-MB-435 it was 0.586 µM (active); with MOLT-4, 1 µM (active); in the assay with KM12, 2.76 µM (inactive); in the assay with UACC-62 it was 0.531 µM (active); in the assay on SR it was 0.327 µM (active). Also, the GI50 in the assay with RPMI-8226 is 3.72 µM (inactive); in the assay on UACC-257 it was 18 µM (inactive); in the assay on SF-539, 1.47 µM (inactive); in the assay on HCT-116, 0.219 µM (active); in the assay on A498, 2.43 µM (inactive); in the assay with HCC 2998 it was 3.56 µM (inactive). The GI50 in the assay with LOX IMVI is 0.449 µM (active); in the assay on SK-MEL-2, 21.2 µM (inactive); with SF-268, 0.815 µM (active); with MDA-N it was 0.173 µM (active); with ACHN, 0.594 µM (active); in the assay on OVCAR-5, 17.1 µM (inactive). In addition, the GI50 with HOP-62 was 1.79 µM (inactive).
Consider `CS(=O)(=O)N1CC(CCl)c2ccc([N+](=O)[O-])cc21` (stereo not given), for which the GI50 in the assay with IGROV-1, in the assay on MDA-MB-435, in the assay on MOLT-4, in the assay on KM12, in the assay with UACC-62 and in the assay with SR was > 100 µM (inactive) each time. In addition, the GI50 with RPMI-8226, in the assay on UACC-257, in the assay with SF-539, in the assay with HCT-116, with A498 and with HCC 2998 was > 100 µM (inactive) throughout. For the same molecule, the GI50 with LOX IMVI, in the assay with SK-MEL-2, in the assay on SF-268, in the assay on MDA-N, in the assay on ACHN and in the assay on OVCAR-5 was > 100 µM (inactive) in each case. Further, the GI50 with HOP-62 is > 100 µM (inactive).
On to `O=C1C(CN2CCCC2)CCC1CN1CCCC1` (stereo not given), for which the GI50 was 27.9 µM (inactive) in the assay on IGROV-1; 17.6 µM (inactive) in the assay on MDA-MB-435; 5.31 µM (inactive) with MOLT-4; > 100 µM (inactive) in the assay on KM12; 17.5 µM (inactive) in the assay with UACC-62; 12.9 µM (inactive) in the assay with SR. In addition, the GI50 with RPMI-8226 was 3.59 µM (inactive); in the assay on UACC-257, 16.8 µM (inactive); with SF-539, 19.5 µM (inactive); in the assay on HCT-116, 17.5 µM (inactive); in the assay on A498, > 100 µM (inactive); in the assay with HCC 2998, > 100 µM (inactive). Also, the GI50 with LOX IMVI was 20.8 µM (inactive); in the assay on SK-MEL-2, 21.2 µM (inactive); with SF-268, 20.8 µM (inactive); in the assay with MDA-N, 16 µM (inactive); in the assay on ACHN, 15.8 µM (inactive); with OVCAR-5 it was > 41.3 µM (inactive). Also, the GI50 in the assay on HOP-62 was > 100 µM (inactive).
Turning to `NC(=O)NC1NC(=O)NC1=O` (stereo not given) [ALLANTOIN], the GI50 in the assay on IGROV-1, in the assay on MDA-MB-435, with MOLT-4, in the assay on KM12, with UACC-62 and with SR was > 100 µM (inactive) throughout. The GI50 in the assay on RPMI-8226, in the assay on UACC-257, in the assay on SF-539, in the assay on HCT-116, in the assay on A498 and in the assay on HCC 2998 was > 100 µM (inactive) each time. In addition, the GI50 in the assay on LOX IMVI, in the assay with SK-MEL-2, in the assay with SF-268, with MDA-N, with ACHN and with OVCAR-5 was > 100 µM (inactive) each time. Besides, the GI50 with HOP-62 was > 100 µM (inactive).
`CC(=O)c1cc2c(s1)C(=O)c1ccccc1C2=O`: the GI50 in the assay with IGROV-1 was 2.01 µM (inactive); in the assay on MDA-MB-435, 0.791 µM (active); in the assay with MOLT-4 it was 2.48 µM (inactive); in the assay on KM12 it was 2.04 µM (inactive); in the assay with UACC-62, 2.51 µM (inactive); in the assay on SR, 5.66 µM (inactive). Further, the GI50 in the assay on RPMI-8226 is 2.38 µM (inactive); with UACC-257, 1.57 µM (inactive); in the assay on SF-539 it was 1.44 µM (inactive); in the assay with HCT-116 it was 1.68 µM (inactive); in the assay on A498, 29.3 µM (inactive); in the assay on HCC 2998, 5.37 µM (inactive). Also, the GI50 with LOX IMVI was 0.346 µM (active); in the assay with SK-MEL-2 it was 4.31 µM (inactive); with SF-268 it was 2.73 µM (inactive); with MDA-N, 1.63 µM (inactive); in the assay with ACHN, 1.36 µM (inactive); in the assay with OVCAR-5, 5.25 µM (inactive). The GI50 in the assay with HOP-62 is 2.44 µM (inactive).
With `CC(O)CC(=O)CO[C@H]1[C@H](O)[C@@H](O)[C@@H](O)[C@@H]2NC(=O)c3c(cc4c(c3O)OCO4)[C@H]21` (stereo not given in full), the GI50 was < 0.0207 µM (active) with IGROV-1; 0.0386 µM (active) with MDA-MB-435; 0.0313 µM (active) with MOLT-4; 0.0316 µM (active) with KM12; 0.0541 µM (active) with UACC-62; 0.0335 µM (active) in the assay on SR. The GI50 with RPMI-8226 was 0.0226 µM (active); in the assay with UACC-257, 0.0397 µM (active); in the assay with SF-539 it was 0.0214 µM (active); with HCT-116, 0.0264 µM (active); in the assay on A498, 0.0218 µM (active); in the assay on HCC 2998 it was 0.0181 µM (active). Also, the GI50 in the assay on LOX IMVI is 0.0208 µM (active); with SK-MEL-2, 0.0363 µM (active); in the assay with SF-268 it was 0.0222 µM (active); in the assay with MDA-N, 0.0366 µM (active); in the assay on ACHN it was 0.0391 µM (active); in the assay with OVCAR-5, 0.0711 µM (active). In addition, the GI50 in the assay on HOP-62 is 0.0289 µM (active).
In the case of `COC(=O)C(=O)C(C(=O)C(N)=O)c1nc2ccc(C(=O)c3ccccc3)cc2nc1O` (stereo not given), the GI50 in the assay with IGROV-1 was 83.2 µM (inactive); in the assay with MDA-MB-435, 65 µM (inactive); with MOLT-4 it was 54.3 µM (inactive); in the assay with KM12, 46.9 µM (inactive); in the assay on UACC-62 it was > 100 µM (inactive); with SR, 27.7 µM (inactive). The GI50 with RPMI-8226 is 62.5 µM (inactive); in the assay with UACC-257 it was > 100 µM (inactive); with SF-539, 87.1 µM (inactive); in the assay with HCT-116, > 100 µM (inactive); in the assay on A498 it was > 100 µM (inactive); in the assay with HCC 2998, > 100 µM (inactive). For the same molecule, the GI50 is > 100 µM (inactive) with LOX IMVI; > 100 µM (inactive) in the assay on SK-MEL-2; > 100 µM (inactive) with SF-268; > 100 µM (inactive) in the assay on MDA-N; 63 µM (inactive) in the assay on ACHN; > 100 µM (inactive) with OVCAR-5. The GI50 in the assay on HOP-62 is > 100 µM (inactive).
For `CN1CCC(CN2c3ccccc3Sc3ccccc32)C1` (stereo not given) [METHDILAZINE HYDROCHLORIDE], the GI50 in the assay with IGROV-1 is 17.3 µM (inactive); in the assay with MDA-MB-435, 10.1 µM (inactive); with MOLT-4 it was 16.3 µM (inactive); with KM12 it was 17.9 µM (inactive); in the assay with UACC-62, 12.8 µM (inactive); with SR, 2.7 µM (inactive). The GI50 was 15.1 µM (inactive) in the assay with RPMI-8226; 11.8 µM (inactive) with UACC-257; 16.8 µM (inactive) with SF-539; 13.9 µM (inactive) in the assay with HCT-116; 13.1 µM (inactive) in the assay on A498; 10.1 µM (inactive) in the assay with HCC 2998. Besides, the GI50 with LOX IMVI was 15 µM (inactive); in the assay on SK-MEL-2, 15.7 µM (inactive); in the assay with SF-268, 15.3 µM (inactive); in the assay on MDA-N it was 14.1 µM (inactive); in the assay on ACHN, 14.7 µM (inactive); in the assay on OVCAR-5, 16.7 µM (inactive). Besides, the GI50 in the assay with HOP-62 is 15 µM (inactive).
For the molecule `C/C(=C\COc1cc(O)c2c(c1)C(=O)c1cc(C)cc(O)c1C2=O)CCC1OC1(C)C` (stereo not given), the GI50 with IGROV-1 was 68.9 µM (inactive); with MDA-MB-435, > 100 µM (inactive); with MOLT-4 it was 7.85 µM (inactive); in the assay on KM12, > 100 µM (inactive); in the assay with UACC-62, 40.3 µM (inactive); with SR, 13.9 µM (inactive). In addition, the GI50 is 93.8 µM (inactive) with RPMI-8226; > 100 µM (inactive) in the assay on UACC-257; 74 µM (inactive) in the assay with SF-539; 77.8 µM (inactive) in the assay with HCT-116; > 100 µM (inactive) in the assay on A498; > 100 µM (inactive) in the assay on HCC 2998. Moreover, the GI50 was > 100 µM (inactive) in the assay on LOX IMVI; > 100 µM (inactive) in the assay with SK-MEL-2; 42.3 µM (inactive) with SF-268; > 100 µM (inactive) in the assay with MDA-N; 40.9 µM (inactive) with ACHN; > 100 µM (inactive) in the assay with OVCAR-5. The GI50 in the assay on HOP-62 is 46 µM (inactive).
